Measurements from patent US8754233B2, “Pyrazolylbenzothiazole derivatives and their use as therapeutic agents” (Dermira (Canada), Inc., priority 2002, dated 2014).

Legend:
[1] = tested on: MCP1 on HUVECS; test: Inhibition of MCP-1 release from TNFα-stimulated HUVEC; format: cell-based, human; conditions: 18-24 hours, ELISA
Source text: The activation of endothelial cells by pro-inflammatory cytokine TNF-α leads to the production of several chemokines. The release of these chemokines play an important role in leukocyte trafficking and extravasation of leukocytes into tissue during inflammation. MCP-1 and IL-8 are among the chemokines released upon stimulation of human endothelial cells (HUVECs) by TNFα, and contribute to migration of monocytes to the sites of inflammation. Cells should not be passaged more than 6 times.
Cells were maintained and grown in tissue culture flasks (T75) in endothelial cell growth medium (EGM, Clonetics) containing 5 additional supplements (EGM-5) in medium [human recombinant endothelial growth factor (hEGF), hydrocortisone (HC), bovine brain extract (BBE), fetal bovine serum (FBS) and Gentamycin (GA)] incubated at 37° C., 5% CO2. The cells should be propagated a maximum of 20 passages.
The plates were incubated overnight at 37° C., 5% CO2 to enable the cells to attach and grow.
The working concentration of TNFα was 1,000 pg/ml. A twenty times working concentration of TNFα was 20,000 pg/ml was prepared using EGM-5. The test compounds, DMSO negative vehicle control and staurosporine positive control were diluted 20× using EGM-5. Ten μL each of the compounds, DMSO and staurosporine were combined with 180 μl of medium containing HUVEC cells. Immediately following the addition of the compounds, 10 μl of […] TNFα was added to the wells. Medium without TNFα was added to the control wells. […] The plates were incubated at 37° C. in 5% CO2 in humidified conditions overnight (18-24 hours) for TNFα.
At the completion of the stimulation, the plates were spun at 2000 rpm for 10 minutes. The supernatants from each well were transferred to fresh plates for MCP1 analysis by ELISA.
[…] were determined with PharMingen's OptEIA™ MCP1 Kit (PharMingen) according to manufacturer's instructions.
The data is represented as a percentage of MCP1 inhibition by the following formula: % MCP1 inhibition=100−(AVG treatment/AVG DMSO control)*100.

[2] = tested on: macrophages; test: Survival of macrophages; format: cell-based, mouse; conditions: stimulated primary macrophages
[3] = tested on: TNFa on macrophages; test: Inhibition of TNFα release from stimulated macrophages; format: cell-based, mouse; conditions: LPS and IFN-γ stimulated primary macrophages, ELISA
Experimental: Peritoneal exudate macrophages were isolated by peritoneal lavage with ice-cold sterile physiological saline 24 hours after intraperitoneal injection of BALB/c mice with 0.5 mL of sterile Zymosan A (1 mg/0.5 mL 0.9% saline). […] Murine primary macrophage will get activated following incubation with LPS in the presence of sub-optimal doses of IFN-γ. […] TNF-αlevels in the supernatants from stimulated macrophages were determined with PharMingen's OptEIA TNF-α kit (PharMingen). The experiment was performed at room temperature, about 21° C., unless otherwise stated. The microwells (F8 MaxiSorp™ Loose/Nunc-Immuno Module; Gibco/BRL) were coated with 100 μl/well of capture antibody (at the recommended concentration) and incubated overnight at 4° C. […] Next, the solution was removed and the plates were washed 5× with wash buffer. The TNF-αanalysis was initiated by adding duplicate samples (100 μl/well) or standards (100 μl/well) in diluent buffer which were incubated for 2 h. The solution was removed and the plates washed 5× with wash buffer. Enzyme reagent (100 μl) containing biotinylated mouse TNF-αmonoclonal antibody and avidin-horseradish peroxidase conjugate (at concentrations recommended by the manufacturer) was added to each well. The plate was incubated for 1 hour, the solution removed, and the plates washed 7× with wash buffer. […] Colour development was terminated by adding 50 μl of 2N H2SO4. […] Peritoneal exudate macrophages were isolated by peritoneal lavage with ice-cold sterile physiological saline 24 hours after intraperitoneal injection of BALB/c mice with 0.3 ml of sterile zymosan A (1 mg/0.5 mL 0.9% saline). […] All treatments were replicated six times. Cells were incubated for an additional 24 hours, and cell free culture supernatants from each well were collected for NO and cytokine determination. The remaining cells were stained with crystal violet to determine effect of the compound on cell survival.

[4] = tested on: IL-12 on macrophages; test: Inhibition of IL-12 release from stimulated macrophages; format: cell-based, mouse; conditions: LPS and IFN-γ stimulated primary macrophages, ELISA
Experimental: Peritoneal exudate macrophages were isolated by peritoneal lavage with ice-cold sterile physiological saline 24 hours after intraperitoneal injection of BALB/c mice with 0.5 mL of sterile Zymosan A (1 mg/0.5 mL 0.9% saline). […] Murine primary macrophage are activated following incubation with LPS in the presence of sub-optimal doses of IFN-γ. Upon activation, macrophages participate actively in the onset of inflammation by releasing bioactive molecules that amplify the initial inflammatory response. […] Briefly, IL-12 levels in the supernatants from stimulated macrophages were determined with PharMingen's OptEIA™ ELISA set developed using an anti-mouse IL-12 antibody pair and mouse rIL-12 standard (PharMingen). Maxisorp™ F16 multiwell strips (Nunc, Roskilde, Denmark) were coated with anti-mouse IL-12 capture Ab (at recommended concentration) in 0.1 M NaHCO3, pH 9.5, 100 μL/well, overnight at 4° C. […] Plates were washed 3× with PBST and duplicate samples (100 μL/well) or standards (100 μL/well) in diluent buffer were incubated for 2 h. Plates were washed five times with PBST and incubated with biotinylated anti-mouse IL-12 and avidin-horseradish peroxidase (HRP) conjugate (at concentrations recommended by the manufacturer) for 1 h. […] Peritoneal exudate macrophages were isolated by peritoneal lavage with ice-cold sterile physiological saline 24 hours after intraperitoneal injection of BALB/c mice with 0.3 ml of sterile zymosan A (1 mg/0.5 mL 0.9% saline). […] All treatments were replicated six times. Cells were incubated for an additional 24 hours, and cell free culture supernatants from each well were collected for NO and cytokine determination. The remaining cells were stained with crystal violet to determine effect of the compound on cell survival.

Compound: COc1cc2sc(-c3c(N4CCNCC4)n[nH]c3N)nc2cc1F [4-(5-Fluoro-6-methoxybenzothiazole)-5-piperizin-1-yl-2H-pyrazol-3-ylamine]
- IC50 [1]: 10.9 µM
- IC50 [2]: > 25 µM
- IC50 [3]: 14.7 µM
- IC50 [4]: 23.4 µM

Compound: COc1cc2sc(-c3c(NCCN(C)C)n[nH]c3N)nc2cc1F [N^3-(2-Dimethylaminoethyl)-4-(5-fluoro-6-methoxybenzothiazole)-1H-pyrazole-3,5-diamine]
- IC50 [1]: > 25 µM
- IC50 [2]: > 25 µM
- IC50 [3]: 17.1 µM
- IC50 [4]: > 25 µM
